Reference: patent US20170210741A1, “Benzimidazole Compounds, Use As Inhibitors of WNT Signaling Pathway in Cancers, and Methods for Preparation Thereof” (Southern Research Institute, priority 2016, published 2017)
Read-outs that look alike come from different tables or passages of the source.

Key:
Type in all cases: cell-based
[1] = system: Suit-2; test: In vitro cell viability assay (Cell Titer Glo), pancreatic cancer Suit-2; settings: 72 h
Method: (§1) Breast cancer SUM159 was obtained from Asterand and grown according to supplier's recommendation. All other cell lines were obtained from ATCC and cultured in standard cell culture conditions with complete cell culture medium containing 10% FBS.
(§2) Cancer cells were seeded into optically clear tissue culture-treated black 96-well plates (for adherent cells) or low-attachment 96-well plates (for cancer stem cells) at 2,000-5000 cells/50 μL of media per well. The cells were treated with Wnt inhibitors at 0.1 to 10 μM for 72 h. Cell viability was measured by the Cell Titer Glo Assay from Promega.

[2] = system: S2VP10; test: In vitro cell viability assay (Cell Titer Glo), pancreatic cancer S2VP10; settings: 72 h
Method: as §1, §2

[3] = system: PANC-1; test: In vitro cell viability assay (Cell Titer Glo), pancreatic cancer PANC-1; settings: Homo sapiens, 72 h
Method: as §1, §2

[4] = system: Wnt signaling; test: Wnt signaling reporter assay (Super8XTOPFlash luciferase) in LRP6-expressing HEK293 cells; settings: Homo sapiens, 24 h treatment, luciferase normalized to β-galactosidase, read-out: IC50 (effects on Wnt signaling)
Method: HEK293 cells were plated into 24-well plates. After overnight culture, the cells were transiently transfected with 0.06 μg of the Super8XTOPFlash luciferase construct, 0.06 μg of β-galactosidase-expressing vector, and 0.06 μg of pCS-Myc-hLRP6 or control vector. After 24 h incubation, cells were treated with each individual compound in triplicate for 24 h. Cells were then lysed, and the luciferase and β-galactosidase activities were determined by the luciferase assay system (Promega) and β-galactosidase assay system (Promega), respectively. The luciferase activity was normalized to the β-galactosidase activity.
Table 2 below illustrates the effects of the disclosed compounds on Wnt signaling in LRP6-expressing HEK293 cells.

[5] = system: HT-29; test: In vitro cell viability assay (Cell Titer Glo), colorectal cancer HT-29; settings: Homo sapiens, 72 h
Method: as §1, §2
(§3) Table 4 below illustrates the effects of the disclosed compounds on cell viability of colorectal cancer cell lines.

[6] = system: HCT116; test: In vitro cell viability assay (Cell Titer Glo), colorectal cancer HCT116; settings: Homo sapiens, HCT-116, 72 h
Method: as §1, §2, §3

[7] = system: MDA-MB-468; test: In vitro cell viability assay (Cell Titer Glo), breast cancer MDA-MB-468; settings: Homo sapiens, 72 h
Method: as §1, §2
(§4) Table 5 below illustrates the effects of the disclosed compounds on cell viability of breast cancer cell lines.

[8] = system: HCC1143; test: In vitro cell viability assay (Cell Titer Glo), breast cancer HCC1143; settings: Homo sapiens, 72 h
Method: as §1, §2, §4

[9] = system: 2LMP; test: In vitro cell viability assay (Cell Titer Glo), breast cancer 2LMP; settings: 72 h
Method: as §1, §2, §4

[10] = system: SUM159; test: In vitro cell viability assay (Cell Titer Glo), breast cancer SUM159; settings: 72 h
Method: as §1, §2, §4

[11] = system: L3.6pl; test: In vitro cell viability assay (Cell Titer Glo), pancreatic cancer L3.6pl; settings: Homo sapiens, 72 h
Method: as §1, §2

[12] = Suit-2, CSC enriching serum free medium, non-adherent plates, read-out: Cell viability (IC50) Suit-2 CSC
[13] = Suit-2, adherent, complete medium 10% FBS, read-out: Cell viability (IC50) Suit-2 Adherent
[14] = S2VP10, CSC enriching serum free medium, non-adherent plates, read-out: Cell viability (IC50) S2VP10 CSC
[15] = S2VP10, adherent, complete medium 10% FBS, read-out: Cell viability (IC50) S2VP10 Adherent
[16] = PANC-1, adherent, complete medium 10% FBS, read-out: Cell viability (IC50) PANC-1 Adherent
[17] = PANC-1, cancer stem cell (CSC) enriching serum free medium, non-adherent plates, read-out: Cell viability (IC50) PANC-1 CSC
[18] = HT-29, CSC conditions, read-out: Cell viability (IC50) HT-29 CSC
[19] = HT-29, adherent, read-out: Cell viability (IC50) HT-29 Adherent
[20] = HCT116, CSC conditions, read-out: Cell viability (IC50) HCT116 CSC
[21] = HCT116, adherent, read-out: Cell viability (IC50) HCT116 Adherent

| SMILES | IC50 [1, 12] [nM] | IC50 [1, 13] [nM] | IC50 [2, 14] [nM] | IC50 [2, 15] [nM] | IC50 [3, 16] [nM] | IC50 [3, 17] [nM] | IC50 [4] [nM] | IC50 [5, 18] [nM] | IC50 [5, 19] [nM] | IC50 [6, 20] [nM] | IC50 [6, 21] [nM] | also measured |
| --- | --- | --- | --- | --- | --- | --- | --- | --- | --- | --- | --- | --- |
| Oc1ccc(F)cc1-c1nc2c(Cl)cc(Cl)cc2[nH]1 [Compound 1, 2-(4,6-Dichloro-1H-benzo[d]imidazol-2-yl)-4-fluorophenol] | 2840 | 9130 | 920 | 1620 | 1740 | 210 | 1340 | – | – | – | – | – |
| Oc1ccc(F)cc1-c1nc2cc(Cl)c(F)cc2[nH]1 [Compound 3, 2-(5-Chloro-6-fluoro-1H-benzo[d]imidazol-2-yl)-4-fluorophenol] | 1810 | 3760 | 330 | 1100 | 2320 | 410 | 2800 | 3090 | 6470 | 180 | 1610 | – |
| Oc1c(Cl)cccc1-c1nc2cc(C(F)(F)F)ccc2[nH]1 [Compound 5, 2-Chloro-6-(5-(trifluoromethyl)-1H-benzo[d]imidazol-2-yl)phenol] | 1150 | 3160 | 210 | 1040 | 1330 | 180 | 2770 | – | – | – | – | IC50 ([7]; MDA-MB-468, CSC conditions, read-out: Cell viability (IC50) MDA-MB-468 CSC): 170 nM; IC50 ([7]; MDA-MB-468, adherent, read-out: Cell viability (IC50) MDA-MB-468 Adherent): 1410 nM; IC50 ([8]; HCC1143, CSC conditions, read-out: Cell viability (IC50) HCC1143 CSC): 500 nM; IC50 ([8]; HCC1143, adherent, read-out: Cell viability (IC50) HCC1143 Adherent): 1190 nM; IC50 ([9]; CSC conditions, read-out: Cell viability (IC50) 2LMP CSC): 920 nM; IC50 ([9]; adherent, read-out: Cell viability (IC50) 2LMP Adherent): 1150 nM; IC50 ([10]; SUM159, CSC conditions, read-out: Cell viability (IC50) SUM159 CSC): 340 nM; IC50 ([10]; SUM159, adherent, read-out: Cell viability (IC50) SUM159 Adherent): 500 nM |
| FC(F)(F)Oc1ccc(-c2nc3c(Cl)cc(Cl)cc3[nH]2)cc1 [Compound 8, 4,6-Dichloro-2-(4-(trifluoromethoxy)phenyl)-1H-benzo[d]imidazole] | 840 | 8920 | 770 | 4860 | > 10000 | 1060 | 7920 | – | – | – | – | IC50 ([11]; CSC enriching serum free medium, non-adherent plates, read-out: Cell viability (IC50) L3.6pl CSC): 620 nM; IC50 ([11]; adherent, complete medium 10% FBS, read-out: Cell viability (IC50) L3.6pl Adherent): 1190 nM |
| Oc1ccc(Cl)cc1-c1nc2cc(Cl)c(Cl)nc2[nH]1 [Compound 9, 4-Chloro-2-(5,6-dichloro-3H-imidazo[4,5-b]pyridin-2-yl)phenol] | > 10000 | > 10000 | 870 | 2240 | – | – | 1850 | 8950 | 9760 | 510 | 2090 | – |
| CN1CCN(c2ccc(-c3nc4cc(Cl)c(Cl)cc4[nH]3)cc2)CC1 [Compound 10, 5,6-Dichloro-2-(4-(4-methylpipcrazin-1-yl)phenyl)-1H-benzo[d]imidazole] | 1340 | 5260 | 910 | 4760 | – | – | 13 | 130 | 3290 | 21000 | 11200 | – |
| Clc1cc2nc(-c3ccc(N4CCCCC4)cc3)[nH]c2cc1Cl [Compound 11, 5,6-dichloro-2-(4-(piperidin-1-yl)phenyl)-1H-benzo[d]imidazole] | > 10000 | 970 | > 10000 | 1680 | – | – | 0.95 | 40 | 670 | 570 | 1010 | – |
| Clc1cc2nc(-c3ccc(N4CCCC4)cc3)[nH]c2cc1Cl [Compound 12, 5,6-dichloro-2-(4-(pyrrolidin-1-yl)phenyl)-1H-benzo[d]imidazole] | > 10000 | 2100 | > 10000 | 2580 | – | – | 0.93 | 510 | 840 | 2680 | 1180 | – |
